Target: T1, recombinant mouse APA (Mus musculus, UniProt P16406)
T1 sequence (P16406 1-945): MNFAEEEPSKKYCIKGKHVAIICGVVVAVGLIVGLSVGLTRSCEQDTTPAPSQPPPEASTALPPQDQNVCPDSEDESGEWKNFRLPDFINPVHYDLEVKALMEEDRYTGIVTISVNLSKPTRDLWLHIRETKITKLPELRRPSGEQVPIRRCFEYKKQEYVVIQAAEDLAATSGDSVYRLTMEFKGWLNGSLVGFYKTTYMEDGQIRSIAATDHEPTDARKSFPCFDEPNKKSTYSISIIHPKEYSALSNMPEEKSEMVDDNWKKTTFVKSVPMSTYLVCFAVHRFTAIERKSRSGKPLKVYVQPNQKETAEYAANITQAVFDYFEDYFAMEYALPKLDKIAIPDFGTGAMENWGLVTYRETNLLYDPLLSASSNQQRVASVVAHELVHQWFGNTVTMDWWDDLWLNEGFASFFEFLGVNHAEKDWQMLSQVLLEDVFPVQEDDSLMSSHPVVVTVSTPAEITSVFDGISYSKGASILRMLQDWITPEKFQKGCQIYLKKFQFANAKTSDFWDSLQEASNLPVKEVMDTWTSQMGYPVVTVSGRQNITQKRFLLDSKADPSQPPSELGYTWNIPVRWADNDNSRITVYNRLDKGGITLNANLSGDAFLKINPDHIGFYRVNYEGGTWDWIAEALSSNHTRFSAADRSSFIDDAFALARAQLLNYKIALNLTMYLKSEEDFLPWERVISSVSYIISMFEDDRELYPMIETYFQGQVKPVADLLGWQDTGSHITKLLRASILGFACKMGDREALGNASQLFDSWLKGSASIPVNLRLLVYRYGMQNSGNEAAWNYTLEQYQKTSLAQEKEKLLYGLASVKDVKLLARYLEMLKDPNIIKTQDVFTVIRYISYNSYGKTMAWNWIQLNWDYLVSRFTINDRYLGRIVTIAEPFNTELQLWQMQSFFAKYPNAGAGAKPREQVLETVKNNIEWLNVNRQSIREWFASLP
Assay: Measurement of APA activity in vitro (hydrolysis of GluβNa, colorimetric)
Format: biochemical
Settings: 200 μM Glu-βNa, pH 7.4, 37° C., 4 mM CaCl2, read-out: In vitro inhibition of aminopeptidase A, IC50 classification
Source text: Measurement of APA activity in vitro is based on the protocol of Goldbarg adjusted to the scale of assaying on microplates (Pro Bind™ 3915) (Chauvel et al., 1994). In vitro, in the presence of calcium ions, APA hydrolyses a synthetic substrate α-L-glutamyl-β-naphthylamide (GluβNa) to glutamate and β-naphthylamine ((βNa). A diazotation reaction in acidic medium makes it possible to reveal the β-naphthylamine by formation of a violet-coloured complex: spectrophotometric measurement then makes it possible to know the amount of complex formed and, by reference to a standard curve produced with increasing concentrations of β-naphthylamine, to deduce the enzymatic activity of the sample.
The Glu-βNa substrate (Bachem) and the β-naphthylamine (Sigma) are dissolved in 50% DMSO (dimethyl sulphoxide) and 0.1 N HCl respectively, and conserved at −20° C. at a concentration of 10^−2 M. The diazotation reaction is carried out in the presence of sodium nitrite (87 mM), ammonium sulfamate (130 mM) and N-(1-naphthyl)-ethylenediamine dihydrochloride (23 mM in 95% ethanol).
The reaction takes place at pH 7.4 in 50 mM tris-HCl buffer, in the presence of calcium (4 mM CaCl2); recombinant mouse APA is incubated at 37° C. in the presence of the substrate (200 μM Glu-βNa) and in the presence or absence of various concentrations of the inhibitor to be tested, in a final volume of 100 μL. The reaction is stopped by adding 10 μL, of 3N HCl. A standard curve of β-naphthylamine was prepared in parallel by diazotizing increasing concentrations (up to 0.2 mM) of 2-naphthylamine in 0.1 N HCl.
The following are added to each well: 25 μL of sodium nitrite (NaNO2) (mix, wait 5 minutes at room temperature), 50 μI, of ammonium sulfamate (mix, wait 5 minutes at room temperature), then add 25 μL of N-(1-naphthyl) ethylenediamine dihydrochloride (mix, wait for stabilization of the violet colour for approximately 30 minutes at 37° C.). The absorbance is then measured at 540 nm.
The compound EC33 ((S)-3 amino-4-mercapto-butylsulfonic acid) described in application WO 99/36066 was used as a reference compound.

Compound	IC50
NC(CCC(=O)O)P(=O)(O)CC1CCC1 (centres unmarked) [Example 8, 4-amino-4-[(cyclobutylmethyl)(hydroxy)phosphoryl]butanoic acid]	< 30 nM
CC(C)CCP(=O)(O)C(N)CCC(=O)O (centres unmarked) [Example 1, 4-amino-4-[hydroxy(3-methylbutyl)phosphoryl]butanoic acid]	30 to 300 nM
NC(CCC(=O)O)P(=O)(O)CC1CCCC1 (centres unmarked) [Example 9, 4-amino-4-[(cyclopentylmethyl)(hydroxy)phosphoryl]butanoic acid]	< 30 nM
N[C@H](CS)CCS(=O)(=O)O [EC33, (S)-3 amino-4-mercapto-butylsulfonic acid, reference compound]	300 to 10000 nM
NC(CCC(=O)O)P(=O)(O)CCCC(F)(F)F (centres unmarked) [Example 6, 4-amino-4-[hydroxy(4,4,4-trifluorobutyl)phosphoryl]butanoic acid]	30 to 300 nM
CC(C)CCCP(=O)(O)C(N)CCC(=O)O (centres unmarked) [Example 2, 4-amino-4-[hydroxy(4-methylpentyl)phosphoryl]butanoic acid]	30 to 300 nM
CC(C)CCCCP(=O)(O)C(N)CCC(=O)O (centres unmarked) [Example 3, 4-amino-4-[hydroxy(5-methylhexyl)phosphoryl]butanoic acid]	30 to 300 nM
CCCCCP(=O)(O)C(N)CCC(=O)O (centres unmarked) [Example 4, 4-amino-4-[hydroxy(pentyl)phosphoryl]butanoic acid]	30 to 300 nM
NC(CCC(=O)O)P(=O)(O)CCC1CCCCC1 (centres unmarked) [Example 7, 4-amino-4-[(2-cyclohexylethyl)(hydroxy)phosphoryl]butanoic acid]	30 to 300 nM
CCCCCCP(=O)(O)C(N)CCC(=O)O (centres unmarked) [Example 5, 4-amino-4-[hexyl(hydroxy)phosphoryl]butanoic acid]	30 to 300 nM
NC(CCC(=O)O)P(=O)(O)CC1CCCCC1 (centres unmarked) [Example 10, 4-amino-4-[(cyclohexylmethyl)(hydroxy)phosphoryl]butanoic acid]	< 30 nM
